# Laboratory results: article PMC9814250, “Single step syntheses of (1S)-aryl-tetrahydroisoquinolines by norcoclaurine synthases” (Communications Chemistry, 2020)
# What was measured:
# [1] = target: T1, MxSafC (Myxococcus xanthus, UniProt Q50859); test: HPLC, O-methylation to C6-OMe-7a; type: biochemical; settings: SAM generated in situ (EcMAT, EcMTAN), Mg2+, pH 7.5, 37 °C, 24 h; selective for (S)
# T1 construct: gene safC; recombinant in E. coli BL21(DE3), His-trap purified
# [2] = target: T2, RnCOMT (Rattus norvegicus, UniProt P22734); test: HPLC, O-methylation to C6-OMe product; settings: SAM generated in situ (EcMAT, EcMTAN), Mg2+, pH 7.5, 37 °C, 24 h; not enantioselective
# T2 construct: gene Comt; recombinant in E. coli BL21(DE3), used as lysate
# T2 sequence (P22734 1-264): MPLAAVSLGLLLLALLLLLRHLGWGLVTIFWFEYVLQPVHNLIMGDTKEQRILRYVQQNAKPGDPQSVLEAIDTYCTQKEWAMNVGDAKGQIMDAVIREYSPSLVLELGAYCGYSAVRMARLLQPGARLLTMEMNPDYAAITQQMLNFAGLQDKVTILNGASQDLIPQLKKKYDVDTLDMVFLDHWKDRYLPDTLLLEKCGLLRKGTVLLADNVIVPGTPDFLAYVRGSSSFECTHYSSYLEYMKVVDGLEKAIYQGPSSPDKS
# [3] = target: T1, MxSafC; test: HPLC, O-methylation to C6-OMe-7b; type: biochemical; settings: SAM generated in situ (EcMAT, EcMTAN), Mg2+, pH 7.5, 37 °C, 24 h; selective for (S)
# [4] = target: T2, RnCOMT; test: HPLC, O-methylation to C6/C7-OMe-7b; settings: SAM generated in situ (EcMAT, EcMTAN), Mg2+, pH 7.5, 37 °C, 24 h; not enantioselective
Structure (SMILES),"HPLC, O-methylation to C6-OMe-7a [1]","HPLC, O-methylation to C6-OMe product [2]","HPLC, O-methylation to C6-OMe-7b [3]","HPLC, O-methylation to C6/C7-OMe-7b [4]"
"Oc1cc2c(cc1O)[C@H](C1CCCCC1)NCC2 [5a, (S)-5a]",MxSafC was found to be selective towards both (S)-5a and (S)-5b,"using 5a as the substrate, gave remarkable regioselectivity",–,–
"Oc1cc2c(cc1O)[C@H](c1ccccc1)NCC2 [5b, (S)-5b]",–,–,MxSafC was found to be selective towards both (S)-5a and (S)-5b,C6:C7-OMe-7b was observed by ^1H-NMR when 5b was used as the substrate
